{
  "source": "patent US6338963B1",
  "about": "“Use of carbon monoxide dependent guanylyl cyclase modifiers to stimulate neuritogenesis” (NeoTherapeutics, Inc., priority 1994, dated 2002)",
  "test_system": "PC12 cells",
  "experiment": "Neuritogenesis in PC12 cells",
  "type": "cell-based, rat",
  "conditions": "for neurite outgrowth in the absence of NGF: compound alone; for enhancement of NGF-induced neurite outgrowth: in the presence of NGF, 48 hours; for effect of inhibitor on NGF neuritogenic activity / effect on neuritogenic properties of the NO donors: PC12 cells with NGF; for effect of inhibitor on neuritogenic effects of guanosine: PC12 cells with guanosine and NGF",
  "description": "Much of the work performed in the characterization of the compounds of the present invention involved the use of PC12 cells. These cells are derived from a rat pheochromocytoma and when grown in the presence of NGF, extend neurites, cease cell division and assume many characteristics of sympathetic neurons. When cultured in the absence of nerve growth factor (NGF), few PC12 cells have neurites greater than one cell diameter. Addition of saturating concentrations of NGF for 48 hours stimulates neurite outgrowth in about 20-35% of the cells. Because they constitute a homogeneous population of neuronal-like cells, without contaminating astroglia type cells, it is possible to study the direct effects of the purine based compounds on neurite outgrowth in these cells.\nCells cultured in RPMI 1640 with 1.5% horse serum and 1.5% fetal bovine serum were re-plated onto poly-ornithine coated 24-well culture plates (2.5×10^4 cells per well). AIT-082 and NGF were added to the various cultures immediately upon plating. After 48 hours, medium was removed and the cells irnmediately fixed in 10% formalin and PBS for 10 minutes. Cells and neurites were counted within 2 days of fixation.\nA neurite was defined as a process extending from the cell at least 1 cell body diameter in length and displaying a growth cone at its tip. For each treatment, 2 representative microscope fields were counted from each of 6 sister cultures receiving identical treatments. The total number of cells counted per well (approximately 100 cells) and the total number of cells containing neurites in each well were used to determine fraction of neurite-bearing cells. The mean values (±SEM) were then determined for each of the treatments. To facilitate comparison neurite outgrowth was expressed relative to the proportion of cells bearing neurites in the presence of NGF alone (NGF=100%). The effects of compounds with and without NGF were compared by analysis of variance (ANOVA) followed by Tukey's test for significance.\nThe results are shown in FIG. 3 where the curve represents different levels of AIT-082 plus saturating concentrations (40 ng/ml) NGF. The center horizontal line represents control values for cells cultured in the presence of 40 ng/ml NGF alone. Upper and lower horizontal lines are indicative of confidence limits of NGF alone as determined using standard statistical methods.",
  "note": "No end group written: not given here.",
  "data": [
    {"compound": "Nc1ncnc2c1ncn2[C@@H]1O[C@H](CO)[C@@H](O)[C@H]1O", "note": "[adenosine]", "values": [
      {"measurement": "modification of neural activity", "result": "relatively ineffective"},
      {"measurement": "neurite outgrowth in the absence of NGF", "result": "slightly increased the proportion of cells with neurites"},
      {"measurement": "enhancement of NGF-induced neurite outgrowth", "result": "did not enhance NGF induced neurite outgrowth at any concentration"}
    ]},
    {"compound": "CCNC(=O)[C@H]1O[C@@H](n2cnc3c(N)ncnc32)[C@H](O)[C@@H]1O", "note": "[NECA, 5′-N-ethylcarboxamidoadenosine]", "values": [
      {"measurement": "neurite outgrowth in the absence of NGF", "result": "little stimulation of neurite outgrowth"},
      {"measurement": "effect on the actions of guanosine", "setting": "in the presence and absence of NGF", "result": "could synergistically enhance the actions of guanosine"},
      {"measurement": "enhancement of NGF-induced neurite outgrowth", "result": "also enhanced neuritogenesis, but not to the same extent as guanosine"}
    ]},
    {"compound": "CCCn1cnc2c1c(=O)n(CCCCC(C)=O)c(=O)n2C", "note": "[propentofylline]", "values": [
      {"measurement": "modification of neural activity", "result": "failed to modify neural activity"}
    ]},
    {"compound": "Nc1ncnc2c1ncn2[C@@H]1O[C@H](COP(=O)(O)OP(=O)(O)OP(=O)(O)O)[C@@H](O)[C@H]1O", "note": "[ATP, adenosine triphosphate]", "values": [
      {"measurement": "neurite outgrowth in the absence of NGF", "result": "did not enhance neuritogenesis"},
      {"measurement": "enhancement of NGF-induced neurite outgrowth", "result": "did not enhance neuritogenesis"}
    ]},
    {"compound": "OC[C@H]1O[C@@H](n2cnc3c(O)ncnc32)[C@H](O)[C@@H]1O", "note": "[inosine]", "values": [
      {"measurement": "modification of neural activity", "result": "relatively ineffective"},
      {"measurement": "stimulation of neuritogenesis and enhancement of NGF-stimulated neuritogenesis", "setting": "PC12 cells", "result": "weakly effective"},
      {"measurement": "enhancement of NGF-induced neurite outgrowth", "result": "only slightly enhanced neurite outgrowth"}
    ]},
    {"compound": "O=C1C(Nc2ccccc2)=CC(=O)c2ncccc21", "note": "[LY83583]", "values": [
      {"measurement": "effect of inhibitor on NGF neuritogenic activity", "result": "the response elicited by NGF was unaffected"},
      {"measurement": "effect of inhibitor on neuritogenic effects of guanosine", "result": "inhibited"}
    ]},
    {"compound": "O=C(CCn1cnc2c(=O)[nH]cnc21)NCCCN1CCCC1=O", "note": "[AIT-034, 3-(1,6 dihydro-6-oxo-9hpurin-9-yl)-N-(3-(2-oxopyrrolidin-1-yl)propyl) propanamide]", "values": [
      {"measurement": "modification of neural activity", "result": "failed to modify neural activity"},
      {"measurement": "enhancement of NGF-induced neurite outgrowth", "result": "did not enhance NGF-induced neuritogenesis"}
    ]},
    {"compound": "Nc1nc2c(ncn2[C@@H]2O[C@H](COP(=O)(O)O)[C@@H](O)[C@H]2O)c(=O)[nH]1", "note": "[GMP, guanosine monophosphate]", "values": [
      {"measurement": "enhancement of NGF-induced neurite outgrowth", "result": "neither GDP nor GMP were effective alone or with NGF"}
    ]},
    {"compound": "CN(C)c1ccc2nc3ccc(=[N+](C)C)cc-3sc2c1", "note": "[Methylene blue]", "values": [
      {"measurement": "effect of inhibitor on neuritogenic action of AIT-082", "setting": "PC12 cells", "result": "inhibited the action of AIT-082"},
      {"measurement": "effect of inhibitor on NGF neuritogenic activity", "result": "no effect on NGF activity"},
      {"measurement": "effect of inhibitor on NGF neuritogenic activity", "setting": "listed as MB", "result": "no effect on NGF-stimulated neurite outgrowth"},
      {"measurement": "effect of inhibitor on neuritogenic effects of guanosine", "result": "abolished the synergistic effects of guanosine with NGF"}
    ]},
    {"compound": "Methemoglobin: captures and removes nitric oxide (NO) and carbon monoxide (CO) from the culture media", "values": [
      {"measurement": "effect of inhibitor on neuritogenic action of AIT-082", "setting": "PC12 cells", "result": "inhibited the action of AIT-082"},
      {"measurement": "effect of inhibitor on NGF neuritogenic activity", "result": "no effect on NGF activity"},
      {"measurement": "effect on neuritogenic properties of the NO donors", "result": "inhibited"}
    ]},
    {"compound": "O=c1[nH]c(=O)c2[nH]cnc2[nH]1", "note": "[xanthine]", "values": [
      {"measurement": "modification of neural activity", "result": "relatively ineffective"},
      {"measurement": "concentration toxic to the cells", "setting": "PC12 cells", "result": 300, "unit": "mM"},
      {"measurement": "enhancement of NGF-induced neurite outgrowth", "result": "only slightly enhanced NGF-induced neurite outgrowth"}
    ]},
    {"compound": "Nc1nc2c(ncn2[C@@H]2O[C@H](COP(=O)(O)OP(=O)(O)O)[C@@H](O)[C@H]2O)c(=O)[nH]1", "note": "[GDP, guanosine diphosphate]", "values": [
      {"measurement": "enhancement of NGF-induced neurite outgrowth", "result": "neither GDP nor GMP were effective alone or with NGF"}
    ]},
    {"compound": "CCOC(=O)CCn1cnc2c(N)ncnc21", "note": "[AIT-0026, 3-(6-amino-9H-purin-9-yl)propionic acid, ethyl ester]", "values": [
      {"measurement": "modification of neural activity", "result": "failed to modify neural activity"}
    ]},
    {"compound": "O=c1[nH]cnc2nc[nH]c12", "note": "[hypoxanthine]", "values": [
      {"measurement": "modification of neural activity", "result": "relatively ineffective"},
      {"measurement": "stimulation of neuritogenesis and enhancement of NGF-stimulated neuritogenesis", "setting": "PC12 cells", "result": "weakly effective"},
      {"measurement": "enhancement of NGF-induced neurite outgrowth", "result": "the greatest, although still modest, enhancement"}
    ]},
    {"compound": "O=NO", "note": "[SN, sodium nitrite]", "values": [
      {"measurement": "neurite outgrowth in the absence of NGF", "result": "neither SNP nor SN elicited neurite outgrowth"},
      {"measurement": "enhancement of NGF-induced neurite outgrowth", "result": "enhanced NGF-mediated neurite outgrowth in a synergistic manner"}
    ]},
    {"compound": "C=CC1=C(C)c2cc3[n-]c(cc4[n-]c(cc5nc(cc1n2)C(C)=C5C=C)c(C)c4CCC(=O)O)c(CCC(=O)O)c3C.[Zn+2]", "note": "[Zinc protoporphyrin IX]", "values": [
      {"measurement": "effect of inhibitor on neuritogenic action of AIT-082", "setting": "PC12 cells", "result": "inhibited the action of AIT-082"},
      {"measurement": "effect of inhibitor on NGF neuritogenic activity", "result": "no effect on NGF activity"},
      {"measurement": "effect of inhibitor on NGF neuritogenic activity", "setting": "listed as ZnPP", "result": "did not affect those of NGF"},
      {"measurement": "effect of inhibitor on neuritogenic effects of guanosine", "result": "abolished the neuritogenic effects of guanosine"}
    ]},
    {"compound": "hemoglobin", "values": [
      {"measurement": "effect of inhibitor on neuritogenic action of AIT-082", "setting": "PC12 cells", "result": "inhibited"},
      {"measurement": "effect on neuritogenic properties of the NO donors", "result": "inhibited"},
      {"measurement": "effect of inhibitor on neuritogenic effects of guanosine", "result": "inhibited the neuritogenic effects of guanosine"}
    ]},
    {"compound": "ANF: atrial natriuretic factor, a hormone activating particulate guanylyl cyclase (SLRRSSCFGGRMDRIGAQSGLGCNSFRY; ends and bridges not checked; cysteine pairing not given here; UniProt P01160 124-151, looked up)", "values": [
      {"measurement": "enhancement of NGF-induced neurite outgrowth", "result": "enhanced NGF-stimulated neurite outgrowth"}
    ]},
    {"compound": "copper protoporphyrin IX [CuPP]", "values": [
      {"measurement": "effect of inhibitor on neuritogenic effects of guanosine", "result": "did not reduce the ability of guanosine to enhance NGF-dependent neurite outgrowth"}
    ]}
  ]
}
